Our source for the IC50 and LD50 values is US4552969A, “3-Alkanoyl benzothiazoline compounds useful for treating cardiovascular disease” (Santen Pharmaceutical Co., Ltd., priority 1981, dated 1985).

In one data set the test system is platelet aggregation. The experiment in a line: Pharmacological test II: anti-aggregatory activity, collagen or ADP induced platelet aggregation in vitro (platelet rich plasma). The format is cell-based. The note with it: Oryctolagus cuniculus, 50% inhibition of control response, rabbit PRP, 1 minute preincubation at 37° C., collagen (3 μg/ml) or ADP (3 μM), inducer not given. From the text: Blood platelet plays an important role only in hemostasis but also in thrombosis. Platelet hyperaggregability leads to an inclease in the number of circulating platelet aggregates, which may contribute toward the development of cardiac arrythmias, cardiac arrest or myocardial infarction. These cardiovascular diseases can be prevented by inhibition of platelet aggregation.
Blood was obtained from an anesthetized rabbit using 0.1 volumes of 3.8% sodium citrate as anticoagulant. Platelet rich plasma(PRP) was isolated by centrifugation at 650 rpm for 10 minutes at room temperature. After preincubation of PRP (0.25 ml) with various concentrations of test compounds (14 μl) for 1 minute at 37° C., collagen (3 μg/ml:final concentration) or ADP (3 μM:final concentration) was added to induce aggregation and the aggregation profiles were monitored with RIKADENKI six-channel aggregometer. The control experiment contained saline instead of test compound.
The anti-aggregatory activity was represented by the concentration of test compound which elicited 50% inhibition of control response.

Another data set relates to guinea-pig teania coli. The experiment in a line: Pharmacological test I: calcium-antagonistic activity, inhibition of Ca++-evoked contraction of isolated taenia coli. As to conditions: Cavia porcellus, 5 min; 50% inhibition of contraction evoked by CaCl2 (3×10^-4 M); Ca++-free-high-K Krebs solution, 32° C., 5 minutes pre-exposure. The data set is classed as cell-based. How it is done: The action potentials on the smooth muscles of uterus, teania coli and portal vein are dependent on calcium ion, and therefor these smooth muscle preparations are useful for screening of calcium antagonists. We measured the calcium-antagonistic activity of the compounds by the method using guinea-pig teania coli preparation.
Isolated guinea-pig teania coil was suspended in a 20 ml organ bath with Krebs solution at 32° C. and bubbled with 5% carbon dioxide in oxygen. After equilibration, the muscle was washed with Ca^++ -free Krebs solution, and when the muscle had relaxed to basal level, it was suspended in Ca^++ -free-high-K Krebs solution.
The muscle was exposed to test compounds for 5 minutes before addition of CaCl2, and the contraction evoked by CaCl2 (3×10^-4 M) was recorded isotonically. The calcium-antagonistic activity was represented by the concentration of test compound which elicited 50% inhibition of Ca^++ -evoked contraction (IC50).

Data set [1] in a line: Acute toxicity test, oral. The note with it: rat, in vivo, male ddy-SLC, 0.5% tragacanth suspension. How it is done:
Male ddy-SLC strain rats (4 weeks of age, weighing 19-21 g) were placed in a breeding room of constant temperature and huminity (23±1° C., 55±5%) and fed freely pellet diet and water ad. libitum for a week. Rats showing normal growth were selected for the test.
Test compounds are suspended in 0.5% tragacanth suspention and administered orally in a dose of 0.5 ml/20 g body weight.

Structures can show the parent of a compound that is named as a salt.

For the compound `CC(=O)N1c2ccccc2SC1c1ccccc1OCCCN(C)C1CCCCC1` (centres unmarked) [Compound 8], inhibition in the data set on platelet aggregation was half-maximal at 4600 nM (IC50).
The compound `COc1ccc(OCCCCCN(C)C2CCCCC2)c(C2Sc3ccccc3N2C(C)=O)c1` (centres unmarked) [Compound 21, 3-Acetyl-2-[2-[5-(N-cyclohexyl-N-methlamino)pentyloxy]-5-methoxyphenyl]benzothiazoline fumarate] came in with a 50% inhibitory concentration (IC50) in the data set on platelet aggregation of 1300 nM.
In the case of `COc1ccc(OCCCCCCN(C)C2CCCCC2)c(C2Sc3ccccc3N2C(C)=O)c1` (centres unmarked) [Compound 22], the half-inhibitory concentration (IC50) in the data set on platelet aggregation was found to be 1100 nM.
As for `COc1ccc(OCCCCN(C)CCc2ccc(OC)c(OC)c2)c(C2Sc3ccccc3N2C(C)=O)c1` (centres unmarked) [Compound 23], the 50% inhibitory concentration (IC50) with guinea-pig teania coli is 660 nM.
Regarding `CC(=O)N1c2ccccc2SC1c1cc([N+](=O)[O-])ccc1OCCCN(C)C1CCCCC1` (centres unmarked) [Compound 29], the LD50 in data set [1] is greater than 2000 mg/kg. Also, half-maximal inhibition with platelet aggregation (IC50) was put at 3200 nM.
Turning to `CC(=O)N1c2ccccc2SC1c1cc([N+](=O)[O-])ccc1OCCCNCc1cccnc1` (centres unmarked) [Compound 33], the half-inhibitory concentration (IC50) in the data set with guinea-pig teania coli is 520 nM.
`COc1cc(C2Sc3ccccc3N2C(C)=O)cc(OC)c1OCCCN(C)C1CCCCC1` (centres unmarked) [Compound 54] registered an IC50 in the data set with platelet aggregation of 3100 nM.
Compound `COc1cc(C2Sc3ccccc3N2C(C)=O)cc(OC)c1OCCCCN(C)C1CCCCC1` (centres unmarked) [Compound 55] registered a half-maximal inhibitory concentration (IC50) in the data set on platelet aggregation of 2000 nM.
As to `COc1ccc(OCCCCN2CCN(CCc3ccc(OC)c(OC)c3)CC2)c(C2Sc3ccccc3N2C(C)=O)c1` (centres unmarked) [Compound 63], the 50% lethal dose (LD50) in data set [1] was no less than 3000 mg/kg. Moreover, the IC50 with guinea-pig teania coli amounted to 640 nM.
The corresponding values for `COc1ccc(OCCCCN2CCN(CCc3cc(OC)c(OC)c(OC)c3)CC2)c(C2Sc3ccccc3N2C(C)=O)c1` (centres unmarked) [Compound 67] are greater than 1000 mg/kg and 470 nM.
For the compound `CC(=O)N1c2ccccc2SC1c1cc([N+](=O)[O-])ccc1OCCCN1CCC(Cc2ccccc2)CC1` (centres unmarked) [Compound 95], the IC50 in the data set on platelet aggregation amounted to 2700 nM.

A word on the IC50: it is the concentration that inhibits the measured activity by half. One may read the LD50 as the dose at which mortality reaches 50%. A high value points to a less toxic substance.
